# US20020034725A1, “SENSITIZATION OF CELLS TO RADIATION AND AND CHEMOTHERAPY” (priority 1996, published 2002)
# Experiments:
# [1] = test system: H-ras^v12; assay: Western blot of H-ras farnesylation in T24 bladder carcinoma cells; format: cell-based, human; details: 5 μM
# Experimental: FIG. 16A is an image of a Western blot depicting changes in farnesylation of H-ras^v12 following treatment of human bladder carcinoma cells with FTI-277. T24 bladder carcinoma cells were treated with 5 μM of FTI-277 for the times indicated (hours). Samples were harvested and cell lysates were prepared for Western blot analysis using anti-H-ras antibody. Untreated control samples harvested at 0 and 30 hours are shown for comparison.
# Cells were lysed in culture dishes with 1 x reducing Laemmli sample buffer. Samples were boiled, sheared and clarified by centrifugation at 14,000 rpm in a microfuge before storage at −20° C. Samples containing equal amounts of protein were separated on a 12% SDS polyacrylamide gel and electrophoretically transferred to nitrocellulose membranes. Membranes were blocked for 1-2 hours in PBS containing 0.1% Tween-20 and 5% powdered milk before antibody addition. Membranes were probed with monoclonal pan-ras antibody AB-4 (Oncogene Science, Uniondale, N.Y.) at a concentration of 0.5 μg/ml, or with monoclonal H-ras antibody LA069 (1:5000 dilution; Quality Biotech, Camden, N.J.). Detection of protein was accomplished using the ECL chemiluminescence kit (Amersham, Arlington Heights, Ill.). Images were digitized using an Arcus II scanner, and figures were assembled using Adobe Photoshop 3.0.
# [2] = test system: K-ras; assay: Western blot of K-ras prenylation in SW480 and Panc-1 cells; format: cell-based, human; details: SW480 cells, 48 hours
# Experimental: FIG. 17A is an image of a Western blot depicting inhibition by FTI-277 of K-ras prenylation in human SW480 colon carcinoma cells. SW480 cells were treated with the indicated concentrations of FTI-277 (μM) for 48 hours. Samples were harvested and cell lysates were analyzed by Western blotting using either a H-ras monoclonal antibody (top) or a K-ras monoclonal antibody (bottom). Arrows indicate unfarnesylated ras bands.
# FIG. 18A is an image of a Western blot depicting the specific inhibition of K-ras prenylation by combined FTI-277 and GGTI-298 treatment. Log phase cultures of human pancreatic carcinoma cells (Panc-1) and colon carcinoma cells (SW480) were treated with 5 μM FTI and 8 μM GGTI 298 for 48 hours. Cell samples were then harvested and cell lysates were prepared for Western blot analysis using monoclonal antibodies to K-ras and nuclear lamin B. The electrophoretic mobility of the K-ras mutant in SW480 is slower than that of the mutant K-ras in Panc-1 cells.
# [3] = test system: REF, 3.7, 4R, 5R and REF-GG cells; assay: Apoptosis determination after 10 Gray irradiation (propidium iodide); format: cell-based, rat
# Experimental: 3×10^3 cells/well in 24-well plates were allowed to attach for 12 hours and were then treated with medium containing FTI-277 in DMSO or an equivalent volume of DMSO without inhibitor. Twenty four hours after irradiation with 10 Gray using the irradiator described above, both adherent and non-adherent cells were harvested. Cells were stained with propidium iodide (Muschel et al., 1995, Cancer Res. 55:995-998). A minimum of three independent fields of 100 cells were counted for each sample. Scoring of samples was performed in a double blind manner.
# [4] = test system: T24 bladder carcinoma cells; assay: Colony formation / surviving fraction at 2 Gray in T24 cells; format: cell-based, human
# Experimental: FIG. 16B is a graph depicting colony formation following FTI-277 treatment and irradiation of human T24 bladder carcinoma cells. Cells were treated for 24 hours with 5 μM of FTI-277 and were harvested and plated at the indicated cell density in medium containing DMSO (left panel) or 5 μM FTI-277 (right panel) and were immediately irradiated. Cultures were re-fed after 24 hours with medium that contained no inhibitor. […] The cells were allowed to grow for two weeks prior to scoring for colony formation. Open squares: unirradiated cells; closed circles: 2 Gray irradiated cells. The surviving fraction of cells was calculated as described in the description of FIG. 14B. The correlation coefficient for linear regression analysis (r^2) was greater than 0.95 in all cases.
# In view of the fact that accumulation of unfarnesylated H-ras in T24 cells takes longer, these cells were pretreated for 24 hours prior to irradiation and subsequent assay for clonogenic survival. An additional consideration raised by pretreatment of cells is that FTI-277 and other farnesyltransferase inhibitors can affect the farnesylation of rho proteins involved in cell morphology and thus alter cell adherence. The pretreatment of T24 cells with FTI-277 reduced the ability of these cells to form discrete colonies after replating, resulting in the formation of secondary satellite colonies. […]
# [5] = test system: 3.7, 5R and REF-GG cells; assay: Morphological alterations of ras transformed REF cells; format: cell-based, rat
# Experimental: FIG. 11A is an image of 3.7 cells that were cultured in medium containing 2.5 μM FTI-277 (right) or DMSO (left) for 48 hours.
# FIG. 11B is an image of REF-GG cells that were cultured in medium containing 5 μM FTI-277 (right) or DMSO (left) for 48 hours.
compound,measurement,setting,value
COC(=O)[C@H](CCSC)NC(=O)c1ccc(NC[C@@H](N)CS)cc1-c1ccccc1 [FTI-277],time after which unfarnesylated H-ras was detectable,[1],5 h
same,time required to achieve 50% of ras in the unfarnesylated form,[1],24 h
same,concentration at which altered migration of K-ras became evident,[2],30 µM
same,inhibitor concentration of maximum effect on apoptosis,"[3]; 3.7 cells, 10 Gray",5 µM
same,apoptosis after irradiation,"[3]; 3.7 cells, 10 Gray, 2.5 μM",significant increase
same,extent of apoptosis induced by irradiation,"[3]; 3.7 cells, 10 Gray, 24 hours",greatly enhanced
same,irradiation-induced apoptosis,"[3]; 4R and 5R cells, 10 Gray",augment irradiation-induced apoptosis
same,toxicity of the inhibitor,"[3]; 48 hours, highest doses, 3.7 cells only",some toxicity
same,extent of apoptosis after irradiation,[3]; REF-GG cells,no significant effect
same,baseline level of apoptosis,"[3]; REF-GG cells, unirradiated",slightly increased
same,apoptosis after irradiation,"[3]; untransformed REF cells, 10 Gray",did not result in an increase in apoptosis
same,surviving fraction at 2 Gray irradiation,"[4]; 5 μM, 24 hours pretreatment",0.35
same,colony formation without irradiation,[4]; FTI-277 treatment alone,did not significantly reduce the fraction of wells giving rise to colonies
same,cell morphology,"[5]; H-ras transformed REF cells (3.7 cells 2.5 μM), 48 hours",partial reversion of transformation
same,cell morphology,"[5]; REF-GG cells, 5 μM",did not induce altered cell morphology
